According to patent US20250064945A1 (Arvinas Operations, Inc., priority 2021, published 2025):
Where a name gives a salt, the structure may show the parent alone.

Target: T1, BRM (Homo sapiens, UniProt P51531)
T1 construct: In-Cell Western Screen of BRM Degradation in SW1573 Cells; endogenous in cells; host or cells: SW1573 cells
Assay: Western blot / In-Cell Western screen of BRM degradation in SW1573 cells
Assay type: cell-based
Conditions: overnight (18-20 hours) treatment; for Dmax: read-out: Dmax (%) (% degraded)
Method: Western Blot Screen of BRM Degradation in SW1573 Cells
(§1) To assess BRM degradation (Dmax and DC50) cells were seeded at 8000/well in 96-well black/clear-bottom plates in 180 μL DMEM growth media (containing 1% pen-strep, 1% HEPES and 10% FBS) per well. Plates were incubated overnight to allow adhesion. The next morning cells were treated by adding 20 μL of 10× target compound concentration (1% DMSO) to appropriate wells and returned to incubator for overnight (18-20 hours). The final DMSO concentration was 0.1%.
For lysing, adherent cells were washed once with 100 μL of DPBS. Cells were lysed in 40 μL of 1× RIPA+HALT protease inhibitor on ice for 10 minutes and frozen until use at −80° C. Thawed lysates were cleaned by filtration in 1.2 µm filter plates, or alternatively, were spun clean at 2300 g at 4° C. for 30 minutes.
For blotting, for each Western sample 30 μL of lysate was added to 10 μL of 4×LDS sample buffer, then denatured at 95° C. for 5 minutes in the thermal cycler and placed on ice. Samples were loaded on 4-15% Tris/Glycine gels and run for 25 minutes at 250 constant volts in 1×Tris/Glycine buffer with 4 μL of ladder and 12 μL of each sample loaded for each blot. Protein was transferred from gels to NC with BioRad Turbo dry-transfer unit with the Turbo/midi default program. All blots were rinsed with ddH2O and blocked for 1 hour at room temperature in 5% BSA in TBST (0.1%) on rocker. Blots were exposed to primary antibody in 5% BSA in TBST (0.1%) overnight at 4° C. on rocker (1:1000 for BRM (Cell Signaling Tech. cat #11966) and 1:2000 for alpha-tubulin (Cell Signaling Tech. cat #3873), a control protein. Blot was washed with TBST (0.1%) three times for 5 minutes on rocker at room temperature. Secondary antibody was added, and blots were incubated on a room temperature rocker for 1 hour with 1:18,000 anti-rabbit-HRP and/or anti-mouse-HRP in 5% BSA in TBST (0.1%). Blots were washed three times in TBST (0.1%) for 5 minutes at room temperature on the rocker. Signal was developed with Femto Maximum Sensitivity substrate for 4 minutes and blots read on ChemiDoc™.
In-Cell Western Screen of BRM Degradation in SW1573 Cells
as §1, with “DC50),” for “DC50)”, “10×” for “10× target”, “compound” for “compound concentration”
For processing, the plates were removed from incubator, the media was removed, and immediately 200 μL of cold (4° C.) DPBS was added to all wells. DPBS was then removed, and 50 μL of 4% paraformaldehyde (PFA) in DPBS (4° C.) was added to all wells, and the plates were incubated at room temperature for 20 minutes. PFA was then removed, and 200 μL of TBS-T containing 0.5% Triton X-100 was added to all wells, and the plates were incubated at room temperature for 30 minutes. TBS-T containing 0.5% Triton X-100 was then removed, and 50 μL of Li-Cor blocking solution was added, and the plates were incubated at room temperature for a minimum of one hour. The blocking solution was removed, and 50 μL of Li-Cor blocking solution containing primary antibody cocktail was added (1:1000 for BRM (Cell Signaling Tech. cat #11966) and 1:2000 for alpha-tubulin (Sigma cat #T6074), a control protein. Plates were then placed in cold room until the next day.
The next day plates were washed three times with TBS-T, 200 μL per well. Fifty […] of secondary antibody cocktail in LI-COR blocking solution (anti-rabbit_800 nm and anti-mouse_680 nm) was added to all wells (diluted 1:5000). The plates were incubated at room temperature for at least one hour while protected from light. The plates were washed twice with TBS-T, 200 μL per well. […]

T1 sequence (P51531 whole entry): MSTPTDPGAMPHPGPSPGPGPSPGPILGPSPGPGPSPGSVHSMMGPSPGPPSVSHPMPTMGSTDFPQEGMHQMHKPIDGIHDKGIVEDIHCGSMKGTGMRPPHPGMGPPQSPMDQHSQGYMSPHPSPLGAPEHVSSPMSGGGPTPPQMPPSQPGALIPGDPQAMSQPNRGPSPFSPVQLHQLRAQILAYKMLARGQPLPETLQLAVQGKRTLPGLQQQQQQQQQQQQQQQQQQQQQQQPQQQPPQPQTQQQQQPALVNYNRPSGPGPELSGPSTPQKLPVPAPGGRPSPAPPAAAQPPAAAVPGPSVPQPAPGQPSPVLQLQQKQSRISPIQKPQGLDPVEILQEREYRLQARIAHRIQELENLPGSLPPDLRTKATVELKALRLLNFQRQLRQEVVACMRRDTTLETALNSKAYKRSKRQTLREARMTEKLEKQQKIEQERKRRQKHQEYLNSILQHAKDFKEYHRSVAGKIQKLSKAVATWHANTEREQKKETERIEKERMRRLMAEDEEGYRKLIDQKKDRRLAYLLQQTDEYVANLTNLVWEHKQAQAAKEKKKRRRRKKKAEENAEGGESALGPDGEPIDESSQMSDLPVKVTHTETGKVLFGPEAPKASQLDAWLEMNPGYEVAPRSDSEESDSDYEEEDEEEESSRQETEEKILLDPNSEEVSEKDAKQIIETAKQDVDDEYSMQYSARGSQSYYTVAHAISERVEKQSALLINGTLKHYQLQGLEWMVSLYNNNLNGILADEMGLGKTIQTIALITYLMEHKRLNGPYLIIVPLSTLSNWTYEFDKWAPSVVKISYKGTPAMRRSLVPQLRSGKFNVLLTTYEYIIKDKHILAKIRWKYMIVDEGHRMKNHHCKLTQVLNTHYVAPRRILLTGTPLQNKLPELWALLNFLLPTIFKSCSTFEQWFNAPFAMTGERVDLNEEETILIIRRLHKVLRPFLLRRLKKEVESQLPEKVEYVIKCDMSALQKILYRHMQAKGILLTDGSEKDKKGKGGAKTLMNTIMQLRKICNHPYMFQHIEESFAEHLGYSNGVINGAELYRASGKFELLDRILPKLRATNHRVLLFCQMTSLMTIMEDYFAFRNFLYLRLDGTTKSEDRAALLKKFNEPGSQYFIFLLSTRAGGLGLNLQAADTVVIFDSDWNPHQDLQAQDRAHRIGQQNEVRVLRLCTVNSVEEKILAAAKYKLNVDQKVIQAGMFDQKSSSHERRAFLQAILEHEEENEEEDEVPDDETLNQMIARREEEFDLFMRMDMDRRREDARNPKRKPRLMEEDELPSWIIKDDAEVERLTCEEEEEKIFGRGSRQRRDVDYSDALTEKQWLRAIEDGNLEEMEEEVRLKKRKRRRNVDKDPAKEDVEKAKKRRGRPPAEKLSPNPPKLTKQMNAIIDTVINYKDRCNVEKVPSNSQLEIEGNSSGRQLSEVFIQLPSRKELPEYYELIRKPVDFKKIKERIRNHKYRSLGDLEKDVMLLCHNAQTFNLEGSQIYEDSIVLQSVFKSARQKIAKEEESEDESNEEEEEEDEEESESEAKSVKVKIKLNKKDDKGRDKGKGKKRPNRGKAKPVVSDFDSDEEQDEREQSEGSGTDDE

| SMILES | DC50 [nM] | Dmax [%] |
| --- | --- | --- |
| Cc1ncsc1-c1ccc([C@H](C)NC(=O)[C@@H]2C[C@@H](O)CN2C(=O)[C@@H](c2cc(N3CCC(CN4CCC(O[C@H]5C[C@H](Cn6cnc(-c7cn8cc(-c9ccccc9O)nc8nc7N)c6)C5)CC4)CC3)no2)C(C)C)cc1 [Compound 43, (2S,4R)-4-hydroxy-N-[(1S)-1-[4-(4-methyl-1,3-thiazol-5-yl)phenyl]ethyl]-1-[(2R)-3-methyl-2-{3-[4-({4-[(1r,3r)-3-({4-[7-amino-2-(2-hydroxyphenyl)imidazo[1,2-a]pyrimidin-6-yl]-1H-imidazol-1-yl}methyl)cyclobutoxy]piperidin-1-yl}methyl)piperidin-1-yl]-1,2-oxazol-5-yl}butanoyl]pyrrolidine-2-carboxamide] | 2.5 to 10 | > 75 |
| Cc1ncsc1-c1ccc([C@H](C)NC(=O)[C@@H]2C[C@@H](O)CN2C(=O)[C@@H](c2cc(N3CCC(CN4CCC(O[C@H]5C[C@H](n6cnc(CN7C8CCC7CN(c7cc(-c9ccccc9O)nnc7N)C8)c6)C5)CC4)CC3)no2)C(C)C)cc1 (relative stereo) [Compound 10, (2S,4R)-4-hydroxy-N-[(1S)-1-[4-(4-methyl-1,3-thiazol-5-yl)phenyl]ethyl]-1-[(2R*)-3-methyl-2-{3-[4-({4-[(1r,3r)-3-[4-({3-[3-amino-6-(2-hydroxyphenyl)pyridazin-4-yl]-3,8-diazabicyclo[3.2.1]octan-8-yl}methyl)-1H-imidazol-1-yl]cyclobutoxy]piperidin-1-yl}methyl)piperidin-1-yl]-1,2-oxazol-5-yl}butanoyl]pyrrolidine-2-carboxamide] | < 2.5 | > 75 |
| CC(C)[C@@H](C(=O)N1C[C@H](O)C[C@H]1C(=O)N[C@@H](C)c1ccc(-c2ccnn2C)cc1)c1cc(N2CCC(CN3CCC(O[C@H]4C[C@H](OC/C=C/c5cn6cc(-c7ccccc7O)nc6nc5N)C4)CC3)CC2)no1 [Compound 45, (2S,4R)-4-hydroxy-N-[(1S)-1-[4-(1-methyl-1H-pyrazol-5-yl)phenyl]ethyl]-1-[(2R)-3-methyl-2-{3-[4-({4-[(1r,3r)-3-{[(2E)-3-[7-amino-2-(2-hydroxyphenyl)imidazo[1,2-a]pyrimidin-6-yl]prop-2-en-1-yl]oxy}cyclobutoxy]piperidin-1-yl}methyl)piperidin-1-yl]-1,2-oxazol-5-yl}butanoyl]pyrrolidine-2-carboxamide] | < 2.5 | > 75 |
| Cc1ncsc1-c1ccc([C@H](C)NC(=O)[C@@H]2C[C@@H](O)CN2C(=O)[C@@H](c2cc(N3CCC(O[C@H]4C[C@H](OCC#Cc5cn6cc(-c7ccccc7O)nc6nc5N)C4)CC3)no2)C(C)C)cc1 [Compound 35, formate] | 2.5 to 10 | > 75 |
| Cc1ncsc1-c1ccc([C@H](C)NC(=O)[C@@H]2C[C@@H](O)CN2C(=O)[C@H](c2cc(N3CCC(O[C@H]4C[C@H](OCC#Cc5cn6cc(-c7ccccc7O)nc6nc5N)C4)CC3)no2)C(C)C)cc1 [Compound 34, (2S,4R)-4-hydroxy-N-[(1S)-1-[4-(4-methyl-1,3-thiazol-5-yl)phenyl]ethyl]-1-[(2S)-3-methyl-2-(3-{4-[(1r,3r)-3-({3-[7-amino-2-(2-hydroxyphenyl)imidazo[1,2-a]pyrimidin-6-yl]prop-2-yn-1-yl}oxy)cyclobutoxy]piperidin-1-yl}-1,2-oxazol-5-yl)butanoyl]pyrrolidine-2-carboxamide] | ≥ 30 | – |
| Cc1ncsc1-c1ccc([C@H](C)NC(=O)[C@@H]2C[C@@H](O)CN2C(=O)[C@@H](c2cc(OCCN3CCN(CCOc4cc(N5CCN(c6cc(-c7ccccc7O)nnc6N)CC56COC6)ccn4)CC3)no2)C(C)C)cn1 [Compound 17, (2S,4R)-1-[(2R)-2-{3-[2-(4-{2-[(4-{8-[3-amino-6-(2-hydroxyphenyl)pyridazin-4-yl]-2-oxa-5,8-diazaspiro[3.5]nonan-5-yl}pyridin-2-yl)oxy]ethyl}piperazin-1-yl)ethoxy]-1,2-oxazol-5-yl}-3-methylbutanoyl]-4-hydroxy-N-[(1S)-1-[6-(4-methyl-1,3-thiazol-5-yl)pyridin-3-yl]ethyl]pyrrolidine-2-carboxamide] | 2.5 to 10 | > 75 |
